In patent EP4786483A1, “AURISTATIN DERIVATIVE AND ANTIBODY-DRUG CONJUGATE THEREOF” (priority 2023, dated 2025):
Like-named read-outs stand apart in the source and are kept apart here.

Experiments:
Type in all cases: cell-based
[1] = system: human breast cancer cells MDA-MB-468; assay: Cytotoxicity test for compounds (CellTiter-Glo cell proliferation inhibition); settings: Homo sapiens, MDA-MB-468, 72 h
Description: (§1) Biological Test Example 1: Cytotoxicity Test for Compounds
(§2) • 96-well clear flat-bottom white plate (Corning, #3610) • RPMI1640 culture medium (Gibco, #A10491-01) • Fetal Bovine Serum (Sigma-Aldrich, #F8687-500ML) • CellTiter-Glo® Luminescent Cell Viability Assay (Promega, # G7572/G7571)
(§3) Human gastric cancer cells NCI-N87 (ATCC, Cat. No.: CRL-5822), human breast cancer cells MDA-MB-468 (Cell Bank of the Committee for Type Culture Collection of the Chinese Academy of Sciences, Cat. No.: TCHu136), and human breast cancer cells KPL-4 (Nanjing Cobioer Biosciences Co., Ltd., Cat. No.: CBP60379) were washed with PBS and digested with 0.25% Trypsin-EDTA trypsin for about 3-10 min. The digestion was terminated with a complete cell culture medium. The cells were centrifuged at 1000 rpm for 5 min, and the supernatant was discarded. The cells were resuspended in a complete cell culture medium. The cell number was counted using a cell counter, and the cells were adjusted to the desired density. 90.0 µL of the cell suspension was added to each well at 3000 cells/well. The cell plate was incubated in a cell incubator at 37°C with 5% CO2 overnight.
(§4) In the experiment, a DMSO control group and test sample groups were set. The cell plate was removed from the incubator to observe cell adherence. After the cells adhered, 10.00 µL of the sample (starting from a final concentration of 10 µM, 5-fold dilution, 9 concentrations) was added to each well. After the mixture was gently shaken uniformly, the plate was incubated in the incubator.
(§5) After 3 days of incubation, 100.0 µL/well of CellTiter-Glo™ (Promega, Cat. No.: G7572/G7571) working solution was added. The plate was shaken on a thermostatic shaker to lyse the cells. After 10 min, the plate was read on a microplate reader.
(§6) Data analysis: GraphPad Prism 8.0 software was used to plot a graph with the Log value of the sample concentration as the abscissa and the Inhibition% as the ordinate. The data were analyzed by Nonlinear regression (curve fit) to obtain the IC50 value of each test sample. Table 1. Inhibition activity of compounds of the present disclosure on cell proliferation

[2] = system: human breast cancer cells KPL-4; assay: as above; settings: Homo sapiens, KPL4, 72 h
Description: as §1, §2, §3, §4, §5, §6

[3] = system: Human gastric cancer cells NCI-N87; assay: as above; settings: Homo sapiens, NCI-N87, 72 h
Description: as §1, §2, §3, §4, §5, §6

[4] = system: CD34^+ hematopoietic stem/progenitor cells; assay: Hematologic toxicity of compounds (CD34+ HSC viability, CTG); settings: 240 h; cytotoxic drugs; treatment for 10 days; CTG cell viability
Description: Experimental objective: The effects of cytotoxic drugs on the differentiation and development of CD34^+ hematopoietic stem/progenitor cells into the megakaryocytic lineage were investigated, so as to evaluate their potential hematologic toxicity of causing thrombocytopenia.
Experimental design: After resuscitation, bone marrow-mobilized peripheral blood-derived HSCs were seeded at 2000 cells/well/180 µL in an ultra-low attachment 96-well round-bottom plate and stabilized for 4 h. The cells were treated with compounds by performing a 5-fold gradient dilution starting from the highest dose of 1 µM, resulting in a total of 9 concentration points, and this treatment was maintained continuously for 10 days. Cell viability was detected using the CTG reagent (CellTiter-Glo luminescent cell viability detection kit, manufacturer: Promega, Cat. No.: G7571). Table 2. Hematologic toxicity test results of cytotoxic drugs

[5] = 3 days of incubation, CellTiter-Glo, read-out: MDA-MD-468/IC50
[6] = 3 days of incubation, CellTiter-Glo, read-out: KPL-4/IC50
[7] = 3 days of incubation, CellTiter-Glo, read-out: NCI-87/IC50

CC[C@H](C)[C@@H]([C@@H](CC(=O)N1CCC[C@H]1[C@H](OC)[C@@H](C)C(=O)N(O)CCc1cccc(N)c1)OC)N(C)C(=O)[C@@H](NC(=O)[C@H](C(C)C)N(C)C)C(C)C [Example 8, (S)-N-((3R,4S,SS)-1-((S)-2-((1R,2R)-3-((3-aminophenethyl)(hydroxy)amino)-1-methoxy-2-methyl-3-oxopropyl)pyrrolidin-1-yl)-3-methoxy-5-methyl-1-oxoheptan-4-yl)-2-((S)-2-(dimethylamino)-3-methylbutanamido)-N,3-dimethylbutanamide]
IC50 [1, 5]: 0.56 nM | IC50 [2, 6]: 0.14 nM | IC50 [3, 7]: 0.66 nM

CC[C@H](C)[C@@H]([C@@H](CC(=O)N1CCC[C@H]1[C@H](OC)[C@@H](C)C(=O)O[C@H](CC#N)Cc1cccc(N)c1)OC)N(C)C(=O)[C@@H](NC(=O)[C@H](C(C)C)N(C)C)C(C)C [Example 9, (S)-1-(3-aminophenyl)-3-cyanopropan-2-yl (2R,3R)-3-((S)-1-((3R,4S,5S)-4-((S)-2-((S)-2-(dimethylamino)-3-methylbutanamido)-N,3-dimethylbutanamido)-3-methoxy-5-methylheptanoyl)pyrrolidin-2-yl)-3-methoxy-2-methylpropanoate]
IC50 [1, 5]: 3.34 nM | IC50 [2, 6]: 0.74 nM | IC50 [3, 7]: 3.84 nM

C=CCN(C(=O)[C@H](C)[C@@H](OC)[C@@H]1CCCN1C(=O)C[C@@H](OC)[C@H]([C@@H](C)CC)N(C)C(=O)[C@@H](NC(=O)[C@H](C(C)C)N(C)C)C(C)C)[C@H](CC#N)Cc1cccc(N)c1 [Example 10, (S)-N-((3R,4S,5S)-1-((S)-2-((1R,2R)-3-(allyl((S)-1-(3-aminophenyl)-3-cyanopropan-2-yl)amino)-1-methoxy-2-methyl-3-oxopropyl)pyrrolidin-1-yl)-3-methoxy-5-methyl-1-oxoheptan-4-yl)-2-((S)-2-(dimethylamino)-3-methylbutanamido)-N,3-dimethylbutanamide]
IC50 [1, 5]: 1.97 nM | IC50 [2, 6]: 1.25 nM | IC50 [3, 7]: 3.35 nM

CC[C@H](C)[C@@H]([C@@H](CC(=O)N1CCC[C@H]1[C@H](OC)[C@@H](C)C(=O)O[C@H](C)Cc1cccc(N)c1)OC)N(C)C(=O)[C@@H](NC(=O)[C@H](C(C)C)N(C)C)C(C)C [Example 11, (R)-1-(3-aminophenyl)propan-2-yl (2R,3R)-3-((S)-1-((3R,4S,5S)-4-((S)-2-((S)-2-(dimethylamino)-3-methylbutanamido)-N,3-dimethylbutanamido)-3-methoxy-5-methylheptanoyl)pyrrolidin-2-yl)-3-methoxy-2-methylpropanoate]
IC50 [1, 5]: 3 nM | IC50 [2, 6]: 0.1 nM | IC50 [3, 7]: 0.15 nM

CC[C@H](C)[C@@H]([C@@H](CC(=O)N1CCC[C@H]1[C@H](OC)[C@@H](C)C(=O)O[C@@H](C)Cc1cccc(N)c1)OC)N(C)C(=O)[C@@H](NC(=O)[C@H](C(C)C)N(C)C)C(C)C [Example 12, (S)-1-(3-aminophenyl)propan-2-yl (2R,3R)-3-((S)-1-((3R,4S,5S)-4-((S)-2-((S)-2-(dimethylamino)-3-methylbutanamido)-N,3-dimethylbutanamido)-3-methoxy-5-methylheptanoyl)pyrrolidin-2-yl)-3-methoxy-2-methylpropanoate]
IC50 [1, 5]: 11.8 nM | IC50 [2, 6]: 1.42 nM | IC50 [3, 7]: 4.05 nM

CC[C@H](C)[C@@H]([C@@H](CC(=O)N1CCC[C@H]1[C@H](OC)[C@@H](C)C(=O)OCCc1cccc(N)c1)OC)N(C)C(=O)[C@@H](NC(=O)[C@H](C(C)C)N(C)C)C(C)C [Example 13]
IC50 ([1]; read-out: MDA-MD-468/IC50 (nM)): 0.56 nM | IC50 ([2]; read-out: KPL-4/IC50 (nM)): 0.18 nM | IC50 ([3]; read-out: NCI-87/IC50 (nM)): 0.58 nM

CC[C@H](C)[C@@H]([C@@H](CC(=O)N1CCC[C@H]1[C@H](OC)[C@@H](C)C(=O)O[C@H](CO)Cc1cccc(N)c1)OC)N(C)C(=O)[C@@H](NC(=O)[C@H](C(C)C)N(C)C)C(C)C [Example 14]
IC50 ([1]; read-out: MDA-MD-468/IC50 (nM)): 3.82 nM | IC50 ([2]; read-out: KPL-4/IC50 (nM)): 1.13 nM | IC50 ([3]; read-out: NCI-87/IC50 (nM)): 5.13 nM

CC[C@H](C)[C@@H]([C@@H](CC(=O)N1CCC[C@H]1[C@H](OC)[C@@H](C)C(=O)O[C@H](CN=[N+]=[N-])Cc1cccc(N)c1)OC)N(C)C(=O)[C@@H](NC(=O)[C@H](C(C)C)N(C)C)C(C)C [Example 15]
IC50 ([1]; read-out: MDA-MD-468/IC50 (nM)): 2.74 nM | IC50 ([2]; read-out: KPL-4/IC50 (nM)): 2 nM | IC50 ([3]; read-out: NCI-87/IC50 (nM)): 11.3 nM

C#CC[C@H](Cc1cccc(N)c1)OC(=O)[C@H](C)[C@@H](OC)[C@@H]1CCCN1C(=O)C[C@@H](OC)[C@H]([C@@H](C)CC)N(C)C(=O)[C@@H](NC(=O)[C@H](C(C)C)N(C)C)C(C)C [Example 17]
IC50 ([1]; read-out: MDA-MD-468/IC50 (nM)): < 0.0256 nM | IC50 ([2]; read-out: KPL-4/IC50 (nM)): < 0.0256 nM | IC50 ([3]; read-out: NCI-87/IC50 (nM)): < 0.0256 nM

C=CC[C@H](Cc1cccc(N)c1)OC(=O)[C@H](C)[C@@H](OC)[C@@H]1CCCN1C(=O)C[C@@H](OC)[C@H]([C@@H](C)CC)N(C)C(=O)[C@@H](NC(=O)[C@H](C(C)C)N(C)C)C(C)C [Example 18]
IC50 ([1]; read-out: MDA-MD-468/IC50 (nM)): < 0.0256 nM | IC50 ([2]; read-out: KPL-4/IC50 (nM)): < 0.0256 nM | IC50 ([3]; read-out: NCI-87/IC50 (nM)): < 0.0256 nM

C=CC(Cc1cccc(N)c1)OC(=O)[C@H](C)[C@@H](OC)[C@@H]1CCCN1C(=O)C[C@@H](OC)[C@H]([C@@H](C)CC)N(C)C(=O)[C@@H](NC(=O)[C@H](C(C)C)N(C)C)C(C)C (stereo partly shown) [Example 19]
IC50 ([1]; read-out: MDA-MD-468/IC50 (nM)): < 0.0256 nM | IC50 ([2]; read-out: KPL-4/IC50 (nM)): < 0.0256 nM | IC50 ([3]; read-out: NCI-87/IC50 (nM)): < 0.0256 nM

CC[C@H](C)[C@@H]([C@@H](CC(=O)N1CCC[C@H]1[C@H](OC)[C@@H](C)C(=O)O[C@H](CF)Cc1cccc(N)c1)OC)N(C)C(=O)[C@@H](NC(=O)[C@H](C(C)C)N(C)C)C(C)C [Example 24]
IC50 ([1]; read-out: MDA-MD-468/IC50 (nM)): < 0.0256 nM | IC50 ([2]; read-out: KPL-4/IC50 (nM)): < 0.0256 nM | IC50 ([3]; read-out: NCI-87/IC50 (nM)): < 0.0256 nM

CC[C@H](C)[C@@H]([C@@H](CC(=O)N1CCC[C@H]1[C@H](OC)[C@@H](C)C(=O)O[C@@H](Cc1cccc(N)c1)C(F)F)OC)N(C)C(=O)[C@@H](NC(=O)[C@H](C(C)C)N(C)C)C(C)C [Example 25]
IC50 ([1]; read-out: MDA-MD-468/IC50 (nM)): < 0.0256 nM | IC50 ([2]; read-out: KPL-4/IC50 (nM)): < 0.0256 nM | IC50 ([3]; read-out: NCI-87/IC50 (nM)): < 0.0256 nM

CCC(C)C(C(CC(=O)N1CCCC1C(OC)C(C)C(=O)OC(Cc1cccc(N)c1)C(=O)NC)OC)N(C)C(=O)C(NC(=O)C(C(C)C)N(C)C)C(C)C (stereo not shown) [Example 30]
IC50 [1, 5]: 0.72 nM | IC50 [2, 6]: 2.42 nM | IC50 [3, 7]: 5.62 nM

C=C(C)C(Cc1cccc(N)c1)OC(=O)[C@H](C)[C@@H](OC)[C@@H]1CCCN1C(=O)C[C@@H](OC)[C@H]([C@@H](C)CC)N(C)C(=O)[C@@H](NC(=O)[C@H](C(C)C)N(C)C)C(C)C (stereo partly shown) [Example 31]
IC50 ([1]; read-out: MDA-MD-468/IC50 (nM)): 0.11 nM | IC50 ([2]; read-out: KPL-4/IC50 (nM)): < 0.0256 nM | IC50 ([3]; read-out: NCI-87/IC50 (nM)): < 0.0256 nM

CC[C@H](C)[C@@H]([C@@H](CC(=O)N1CCC[C@H]1[C@H](OC)[C@@H](C)C(=O)OC1(Cc2cccc(N)c2)CC1)OC)N(C)C(=O)[C@@H](NC(=O)[C@H](C(C)C)N(C)C)C(C)C [Example 32]
IC50 ([1]; read-out: MDA-MD-468/IC50 (nM)): < 0.0256 nM | IC50 ([2]; read-out: KPL-4/IC50 (nM)): < 0.0256 nM | IC50 ([3]; read-out: NCI-87/IC50 (nM)): < 0.0256 nM

CC[C@H](C)[C@@H]([C@@H](CC(=O)N1CCC[C@H]1[C@H](OC)[C@@H](C)C(=O)N(CC#N)CCc1cccc(N)c1)OC)N(C)C(=O)[C@@H](NC(=O)[C@H](C(C)C)N(C)C)C(C)C [Example 45, (S)-N-((3R,4S,5S)-1-((S)-2-((1R,2R)-3-((3-aminophenethyl)(cyanomethyl)amino)-1-methoxy-2-methyl-3-oxopropyl)pyrrolidin-1-yl)-3-methoxy-5-methyl-1-oxoheptan-4-yl)-2-((S)-2-(dimethylamino)-3-methylbutanamido)-N,3-dimethylbutanamide]
IC50 [4]: 0.235 nM | IC50 [2, 6]: 0.65 nM | IC50 [3, 7]: 2.21 nM

CC[C@H](C)[C@@H]([C@@H](CC(=O)N1CCC[C@H]1[C@H](OC)[C@@H](C)C(=O)N(C)CCc1cccc(N)c1)OC)N(C)C(=O)[C@@H](NC(=O)[C@H](C(C)C)N(C)C)C(C)C [WO2023081230A1 Compound 1, reference compound]
IC50 [4]: 0.017 nM
